Each block holds one compound with its values, some of them ahead of it.
Test system: NCI-H929 complex spheroids, viability % test/control
Assay: Anticancer human tumor NCI-H929 cell line growth inhibition [RAS];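 also: compound exposure lasted seven days before viability was read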;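 as to viability, T/C: 100% = DMSO vehicle control viability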
Details: for IC50: curve of first compound; for viability, T/C: stronger effect = lower value
How it was run: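 Multi-cell-type spheroids: tumor cells plus HUVEC endothelial cells and mesenchymal stem cells. RAS-pathway inhibitors were combined with targeted agents, each dosed in half-log steps down from clinical Cmax, or from 10 microM when Cmax was unknown.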

IC50 (second compound 0.000949 µM): 1.96 nM | IC50 (second compound 0.003 µM): 1.84 nM | IC50 (second compound 0.00949 µM): 1.83 nM | IC50 (second compound 0.03 µM): 1.79 nM | IC50 (second compound 0.0949 µM): 1.67 nM | IC50 (second compound 0.3 µM): 1.46 nM
Structure (SMILES): CC1(C)CCC(Nc2ncc(C(F)(F)F)c(-c3c[nH]c4c(P(C)(C)=O)c(C#N)ccc34)n2)CN1 (stereo unspecified) + CCn1c(-c2cccnc2C(C)OC)c2c3cc(ccc31)N1CCOC(CC(NC(=O)C(C(C)C)N(C)C(=O)C3(F)CCN(C(=O)C#CC(C)(C)N(C)C)CC3)C(=O)N3CCCC(N3)C(=O)OCC(C)(C)C2)C1
viability, T/C (second compound 0.000949 µM, first compound 0.000949 µM): 101% | viability, T/C (second compound 0.000949 µM, first compound 0.003 µM): 20.1% | viability, T/C (second compound 0.000949 µM, first compound 0.00949 µM): 4.36% | viability, T/C (second compound 0.000949 µM, first compound 0.03 µM): 3.1% | viability, T/C (second compound 0.000949 µM, first compound 0.0949 µM): 2.69% | viability, T/C (second compound 0.000949 µM, first compound 0.3 µM): 2.22% | viability, T/C (second compound 0.003 µM, first compound 0.000949 µM): 94.2% | viability, T/C (second compound 0.003 µM, first compound 0.003 µM): 17.3% | viability, T/C (second compound 0.003 µM, first compound 0.00949 µM): 4.24% | viability, T/C (second compound 0.003 µM, first compound 0.03 µM): 3.6% | viability, T/C (second compound 0.003 µM, first compound 0.0949 µM): 2.6% | viability, T/C (second compound 0.003 µM, first compound 0.3 µM): 2.53% | viability, T/C (second compound 0.00949 µM, first compound 0.000949 µM): 93.6% | viability, T/C (second compound 0.00949 µM, first compound 0.003 µM): 17% | viability, T/C (second compound 0.00949 µM, first compound 0.00949 µM): 4.24% | viability, T/C (second compound 0.00949 µM, first compound 0.03 µM): 2.85% | viability, T/C (second compound 0.00949 µM, first compound 0.0949 µM): 2.94% | viability, T/C (second compound 0.00949 µM, first compound 0.3 µM): 2.08% | viability, T/C (second compound 0.03 µM, first compound 0.000949 µM): 96.1% | viability, T/C (second compound 0.03 µM, first compound 0.003 µM): 12.4% | viability, T/C (second compound 0.03 µM, first compound 0.00949 µM): 3.38% | viability, T/C (second compound 0.03 µM, first compound 0.03 µM): 2.65% | viability, T/C (second compound 0.03 µM, first compound 0.0949 µM): 2.58% | viability, T/C (second compound 0.03 µM, first compound 0.3 µM): 1.92% | viability, T/C (second compound 0.0949 µM, first compound 0.000949 µM): 88.9% | viability, T/C (second compound 0.0949 µM, first compound 0.003 µM): 9.6% | viability, T/C (second compound 0.0949 µM, first compound 0.00949 µM): 2.64% | viability, T/C (second compound 0.0949 µM, first compound 0.03 µM): 2.41% | viability, T/C (second compound 0.0949 µM, first compound 0.0949 µM): 2.02% | viability, T/C (second compound 0.0949 µM, first compound 0.3 µM): 1.77% | viability, T/C (second compound 0.3 µM, first compound 0.000949 µM): 76.2% | viability, T/C (second compound 0.3 µM, first compound 0.003 µM): 5.86% | viability, T/C (second compound 0.3 µM, first compound 0.00949 µM): 2.85% | viability, T/C (second compound 0.3 µM, first compound 0.03 µM): 2.43% | viability, T/C (second compound 0.3 µM, first compound 0.0949 µM): 1.88% | viability, T/C (second compound 0.3 µM, first compound 0.3 µM): 1.61%

IC50 (second compound 0.00316 µM): 5.68 nM | IC50 (second compound 0.01 µM): 6.25 nM | IC50 (second compound 0.0316 µM): 6.33 nM | IC50 (second compound 0.1 µM): 6.39 nM | IC50 (second compound 0.316 µM): 6.5 nM | IC50 (second compound 1 µM): 6.68 nM
Structure (SMILES): CC1(C)CCC(Nc2ncc(C(F)(F)F)c(-c3c[nH]c4c(P(C)(C)=O)c(C#N)ccc34)n2)CN1 (stereo unspecified) + C=CC(=O)N1CCN(c2nc(OCC3CCCN3C)nc3c(F)c(-c4nc(N)cc(C)c4C(F)(F)F)c(Cl)cc23)C(C)C1
viability, T/C (second compound 0.00316 µM, first compound 0.000949 µM): 128% | viability, T/C (second compound 0.00316 µM, first compound 0.003 µM): 92.7% | viability, T/C (second compound 0.00316 µM, first compound 0.00949 µM): 15.7% | viability, T/C (second compound 0.00316 µM, first compound 0.03 µM): 9.6% | viability, T/C (second compound 0.00316 µM, first compound 0.0949 µM): 8.73% | viability, T/C (second compound 0.00316 µM, first compound 0.3 µM): 5.5% | viability, T/C (second compound 0.01 µM, first compound 0.000949 µM): 125% | viability, T/C (second compound 0.01 µM, first compound 0.003 µM): 109% | viability, T/C (second compound 0.01 µM, first compound 0.00949 µM): 16.1% | viability, T/C (second compound 0.01 µM, first compound 0.03 µM): 12.3% | viability, T/C (second compound 0.01 µM, first compound 0.0949 µM): 9.77% | viability, T/C (second compound 0.01 µM, first compound 0.3 µM): 5.17% | viability, T/C (second compound 0.0316 µM, first compound 0.000949 µM): 125% | viability, T/C (second compound 0.0316 µM, first compound 0.003 µM): 111% | viability, T/C (second compound 0.0316 µM, first compound 0.00949 µM): 16.7% | viability, T/C (second compound 0.0316 µM, first compound 0.03 µM): 11.4% | viability, T/C (second compound 0.0316 µM, first compound 0.0949 µM): 7.81% | viability, T/C (second compound 0.0316 µM, first compound 0.3 µM): 5.16% | viability, T/C (second compound 0.1 µM, first compound 0.000949 µM): 123% | viability, T/C (second compound 0.1 µM, first compound 0.003 µM): 114% | viability, T/C (second compound 0.1 µM, first compound 0.00949 µM): 16.6% | viability, T/C (second compound 0.1 µM, first compound 0.03 µM): 11.9% | viability, T/C (second compound 0.1 µM, first compound 0.0949 µM): 7.35% | viability, T/C (second compound 0.1 µM, first compound 0.3 µM): 5.2% | viability, T/C (second compound 0.316 µM, first compound 0.000949 µM): 129% | viability, T/C (second compound 0.316 µM, first compound 0.003 µM): 114% | viability, T/C (second compound 0.316 µM, first compound 0.00949 µM): 18.5% | viability, T/C (second compound 0.316 µM, first compound 0.03 µM): 9.66% | viability, T/C (second compound 0.316 µM, first compound 0.0949 µM): 8.16% | viability, T/C (second compound 0.316 µM, first compound 0.3 µM): 5.67% | viability, T/C (second compound 1 µM, first compound 0.000949 µM): 132% | viability, T/C (second compound 1 µM, first compound 0.003 µM): 125% | viability, T/C (second compound 1 µM, first compound 0.00949 µM): 17% | viability, T/C (second compound 1 µM, first compound 0.03 µM): 13.4% | viability, T/C (second compound 1 µM, first compound 0.0949 µM): 9.36% | viability, T/C (second compound 1 µM, first compound 0.3 µM): 6.92%

IC50 (second compound 0.000949 µM): 5990 nM | IC50 (second compound 0.003 µM): 5260 nM | IC50 (second compound 0.00949 µM): 1470 nM | IC50 (second compound 0.03 µM): < 31.6 nM | IC50 (second compound 0.0949 µM): < 31.6 nM | IC50 (second compound 0.3 µM): < 31.6 nM
Structure (SMILES): CC(Nc1ccc2c(c1)OCCn1cc(N3C(=O)OCC3C(F)F)nc1-2)C(N)=O (stereo unspecified) + CCn1c(-c2cc(N3CCN(C)CC3)cnc2C(C)OC)c2c3cc(ccc31)-c1csc(n1)CC(NC(=O)C1CC1C)C(=O)N1CCCC(N1)C(=O)OCC(C)(C)C2
viability, T/C (second compound 0.000949 µM, first compound 0.0316 µM): 100% | viability, T/C (second compound 0.000949 µM, first compound 0.1 µM): 97.5% | viability, T/C (second compound 0.000949 µM, first compound 0.316 µM): 109% | viability, T/C (second compound 0.000949 µM, first compound 1 µM): 97.9% | viability, T/C (second compound 0.000949 µM, first compound 3.16 µM): 86.2% | viability, T/C (second compound 0.000949 µM, first compound 10 µM): 20.9% | viability, T/C (second compound 0.003 µM, first compound 0.0316 µM): 94.3% | viability, T/C (second compound 0.003 µM, first compound 0.1 µM): 103% | viability, T/C (second compound 0.003 µM, first compound 0.316 µM): 107% | viability, T/C (second compound 0.003 µM, first compound 1 µM): 102% | viability, T/C (second compound 0.003 µM, first compound 3.16 µM): 78.5% | viability, T/C (second compound 0.003 µM, first compound 10 µM): 14.2% | viability, T/C (second compound 0.00949 µM, first compound 0.0316 µM): 110% | viability, T/C (second compound 0.00949 µM, first compound 0.1 µM): 114% | viability, T/C (second compound 0.00949 µM, first compound 0.316 µM): 102% | viability, T/C (second compound 0.00949 µM, first compound 1 µM): 61.2% | viability, T/C (second compound 0.00949 µM, first compound 3.16 µM): 24.8% | viability, T/C (second compound 0.00949 µM, first compound 10 µM): 2.76% | viability, T/C (second compound 0.03 µM, first compound 0.0316 µM): 32.1% | viability, T/C (second compound 0.03 µM, first compound 0.1 µM): 9.9% | viability, T/C (second compound 0.03 µM, first compound 0.316 µM): 4.54% | viability, T/C (second compound 0.03 µM, first compound 1 µM): 2.25% | viability, T/C (second compound 0.03 µM, first compound 3.16 µM): 0.96% | viability, T/C (second compound 0.03 µM, first compound 10 µM): 0.2% | viability, T/C (second compound 0.0949 µM, first compound 0.0316 µM): 1.56% | viability, T/C (second compound 0.0949 µM, first compound 0.1 µM): 0.81% | viability, T/C (second compound 0.0949 µM, first compound 0.316 µM): 0.54% | viability, T/C (second compound 0.0949 µM, first compound 1 µM): 0.47% | viability, T/C (second compound 0.0949 µM, first compound 3.16 µM): 0.37% | viability, T/C (second compound 0.0949 µM, first compound 10 µM): 0.1% | viability, T/C (second compound 0.3 µM, first compound 0.0316 µM): 0.89% | viability, T/C (second compound 0.3 µM, first compound 0.1 µM): 0.73% | viability, T/C (second compound 0.3 µM, first compound 0.316 µM): 0.48% | viability, T/C (second compound 0.3 µM, first compound 1 µM): 0.29% | viability, T/C (second compound 0.3 µM, first compound 3.16 µM): 0.33% | viability, T/C (second compound 0.3 µM, first compound 10 µM): 0.12%

Source: PubChem BioAssay AID2060884 (Molecular Pharmacology Branch, DTP, NCI, 2025)
